Reference: PMC9186373, “Design, synthesis, and biological evaluation of novel carbazole derivatives as potent DNMT1 inhibitors with reasonable PK properties” (Journal of Enzyme Inhibition and Medicinal Chemistry, 2022)
Like-named read-outs stand apart in the source and are kept apart here.

What was measured:
[1] = test system: human DNMT1; experiment: ELISA EpiQuik DNA methyltransferase (DNMT) activity/inhibitor assay; format: biochemical; settings: 200 nM purified DNMT1, EpiQuik kit; for Inh% at 50 μM: 50 μM compound; for Inh% at 100 μM: 100 μM compound
Experimental: (§1) All the compounds were first screened using an ELISA EpiQuik DNA methyltransferase (DNMT) activity/inhibitor assay kit (Epigentek). To measure the effects of the compounds on human DNMT1 activity, 200 nM purified DNMT1 was incubated with 50 µM and 100 µM of the different compounds and S-adenosylmethionine in the DNMT assay buffer in the assay plate at 37 °C for 2 h[36]. Next, every sample was incubated with the capture and detection antibody, followed by incubation with developer solution for 10 min at room temperature. The absorbance was measured at 450 nm using a POLARstar Omega microplate reader (BMG). S-Adenosylhomocysteine (AdoHcy) was used as a positive control. Methylation inhibition assays for EZH2, LSD, and G9a were performed in modified Tris, pH 9.0, buffer using AlphaLisa technology. An amount of 10 µL of the reaction system contained a corresponding concentration of SAM (Sigma) (EZH2 50 µM, LSD 50 µM, and G9a 50 µM), which was the Km value in each enzymatic reaction, plus 100 nM biotinylated peptide H3 (1–21) (synthesis by GLChina) and the relevant enzyme concentration (0.03 nM EZH2, 0.03 nM LSD, and 0.03 nM G9a). The proteins were preincubated with various compound concentrations for 15 min at room temperature before the substrate and SAM were added. After 60 min of incubation at room temperature, acceptor and donor AlphaLisa beads were added according to the manufacturer’s recommendations. The signals were read in Alpha mode with an EnSpire multimode plate reader (PerkinElmer). IC50 values were derived by fitting the data for the inhibition percentage to a dose-response curve by non-linear regression in GraphPad Prism 5.0[20].
DNMT1 inhibition test was performed on 30 candidates to verify their biochemical activities. The EpiQuik DNA methyl-transferase (DNMT) activity/inhibitor assay kit (Epigentek) was used to identify the activity of synthetic compounds.

[2] = biological target: DNMT1 (Homo sapiens, UniProt P26358); experiment: H3-labelled radioactive methylation assay; format: biochemical; settings: H3-labeled radioactive methylation assay; 40 nM DNMT1
DNMT1, sequence (P26358 whole entry): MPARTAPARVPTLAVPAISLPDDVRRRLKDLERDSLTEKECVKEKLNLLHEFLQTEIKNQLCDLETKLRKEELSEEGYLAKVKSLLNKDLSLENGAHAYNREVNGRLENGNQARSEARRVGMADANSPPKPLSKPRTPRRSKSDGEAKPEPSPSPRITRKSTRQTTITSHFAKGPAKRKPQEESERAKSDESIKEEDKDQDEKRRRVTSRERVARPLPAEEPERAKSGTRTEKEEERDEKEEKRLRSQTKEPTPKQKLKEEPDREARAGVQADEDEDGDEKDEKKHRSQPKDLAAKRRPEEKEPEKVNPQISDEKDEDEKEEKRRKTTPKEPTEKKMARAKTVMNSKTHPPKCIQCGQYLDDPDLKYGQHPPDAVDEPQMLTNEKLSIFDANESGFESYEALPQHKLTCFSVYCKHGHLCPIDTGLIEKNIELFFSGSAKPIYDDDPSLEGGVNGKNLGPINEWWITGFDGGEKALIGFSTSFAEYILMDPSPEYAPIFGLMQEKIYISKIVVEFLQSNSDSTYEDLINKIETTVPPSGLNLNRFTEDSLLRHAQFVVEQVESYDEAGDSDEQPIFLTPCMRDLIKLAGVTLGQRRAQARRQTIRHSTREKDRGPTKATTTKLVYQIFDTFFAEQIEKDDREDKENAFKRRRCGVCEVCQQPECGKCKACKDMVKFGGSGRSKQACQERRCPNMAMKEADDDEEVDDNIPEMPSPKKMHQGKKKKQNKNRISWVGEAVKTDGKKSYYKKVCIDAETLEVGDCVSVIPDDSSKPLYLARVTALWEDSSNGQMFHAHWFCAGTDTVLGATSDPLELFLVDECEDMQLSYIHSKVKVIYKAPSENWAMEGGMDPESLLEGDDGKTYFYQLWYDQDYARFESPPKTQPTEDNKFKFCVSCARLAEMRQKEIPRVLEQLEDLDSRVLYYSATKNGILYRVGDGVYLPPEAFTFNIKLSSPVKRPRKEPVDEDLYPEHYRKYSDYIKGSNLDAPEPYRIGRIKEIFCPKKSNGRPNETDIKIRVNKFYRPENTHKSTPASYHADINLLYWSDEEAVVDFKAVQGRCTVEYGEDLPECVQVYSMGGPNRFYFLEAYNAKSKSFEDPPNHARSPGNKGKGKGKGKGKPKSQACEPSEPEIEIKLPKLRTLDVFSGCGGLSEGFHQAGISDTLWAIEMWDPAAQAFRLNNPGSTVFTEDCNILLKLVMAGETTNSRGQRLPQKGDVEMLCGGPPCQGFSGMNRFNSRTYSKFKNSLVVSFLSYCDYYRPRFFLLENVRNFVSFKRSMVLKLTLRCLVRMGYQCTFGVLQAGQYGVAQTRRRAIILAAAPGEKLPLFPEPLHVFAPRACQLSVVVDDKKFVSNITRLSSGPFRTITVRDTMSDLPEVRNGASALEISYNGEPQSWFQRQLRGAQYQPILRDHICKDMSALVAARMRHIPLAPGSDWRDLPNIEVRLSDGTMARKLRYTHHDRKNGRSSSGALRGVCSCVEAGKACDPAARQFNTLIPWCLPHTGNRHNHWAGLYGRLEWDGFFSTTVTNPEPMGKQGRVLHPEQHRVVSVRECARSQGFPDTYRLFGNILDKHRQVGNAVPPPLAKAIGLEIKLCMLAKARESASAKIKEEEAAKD
Experimental: The DNMT1 radioactive methylation inhibition assays were performed in 30 µL reactions containing 0.1 µM adenosyl-L-methionine S-[methyl-^3H] (^3H-SAM, ^15 Ci/mmol, PerkinElmer), 0.25 µg/mL poly (dI-dC)·poly (dI-dC) (Sigma), 40 nM DNMT1 in 50 mM Tris-HCl, pH 8.0, 1 mM DTT, 5% glycerol, and 100 µg/mL BSA. The proteins were preincubated with a range of compound concentrations for 15 min at room temperature before adding the substrate and [^3H] SAM. After 60 min of incubation at 37 °C, the reaction systems were transferred to a MultiScreen HTS filter plate (Millipore), and the plate was washed 3 times with doubly distilled H2O via a vacuum. The radioactivity was determined by liquid scintillation counting (MicroBeta, PerkinElmer). IC50 values were derived by fitting the data for the inhibition percentage to a dose-response curve by non-linear regression in GraphPad Prism 5.0.
To quantitatively analyse DNMT1 inhibitory effect, the H^3-labelled radioactive methylation assay was conducted to measure the methyltransferase activity of DNMT1 at a range of concentrations for these compounds.

[3] = test system: A549 (human lung cancer cells); experiment: MTT assay, A549; format: cell-based
Experimental: (§2) The human lung cancer cells (A549) and human colon cancer cells (HCT116) were cultured in an RPMI-1640 medium containing 10% FBS, 100 U/mL streptomycin, and 100 U/mL penicillin at 37 °C in a humidified atmosphere with 5% CO2. All compounds were dissolved in DMSO and stock solutions were stored at −20 °C. Reagents were freshly diluted to the marked concentrations with a culture medium before use. DMSO concentration in experimental conditions never exceeded 0.1% (v/v). All cell lines were provided by the cell laboratory, School of pharmaceutical sciences, Guangzhou Medical University.
(§3) Cell viability was detected using an MTT assay kit. Cells were seeded into 96-well plates at a density of ∼1.0 × 10^4/well. 24 h later, sextuplicate wells were treated with media and new compounds at a fixed concentration (50 µM). After 24, 48, and 72 h, the drug-containing medium was replaced by a 100 µL fresh medium with 5 mg/mL MTT solution. After 4 h of incubation, the medium with MTT was removed, and 100 µL of DMSO was added to each well. The plates were gently agitated until the purple formazan crystals were dissolved, and the OD490 was determined using a […] (Olympus BX53, Japan). The data were calculated and plotted as the percent viability compared to the control.

[4] = test system: EZH2; experiment: Methylation inhibition assay (AlphaLisa), EZH2; format: biochemical; settings: 50 µM; for inhibitory activity against EZH2: Figure 3; for Relative selectivity index of DNMT1 vs EZH2: 1 - selected enzyme inhibition/DNMT1 inhibition
Experimental: as §1
(§4) In addition to DNMT1, there are many other methyltransferases that can bind with S-adenosyl-L-methionine (SAM) to facilitate transmethylation reactions[24]^,[25]. To investigate the selectivity of these potent compounds for DNMT1, we then evaluated the inhibitory activities against DNMT1 and other important methyltransferases at the concentration of 50 µM, including DNMT3A/3L, DNMT3B/3L, and other SAM-dependent enzymes[1]^,[2]^,[26], such as EZH2[27], LSD1[28], G9a (histone H3 lysine 9 methyltransferase)[29].
(§5) 493 Relative selectivity index
(§6) 494 Relative selectivity index of DNMT1 is calculated by formula: DNMT1-selectivity
(§7) 495 index =1 - selected enzyme inhibition/DNMT1 inhibition. The closer
(§8) 496 that this value is to 1 or even more than 1, the better DNMT1-selectivity the of the
(§9) 498 Table S1. Relative selectivity index of DNMT1
Cpd. […]

[5] = test system: DNMT3B/3L; experiment: Methyltransferase enzymatic selectivity profiling, DNMT3B/3L; format: biochemical; settings: 50 µM; for inhibitory activity against DNMT3B/3L: Figure 3; for Relative selectivity index of DNMT1 vs DNMT 3B/3L: 1 - selected enzyme inhibition/DNMT1 inhibition
Experimental: as §4
(§10) Here, the selectivity of non-nucleoside DNMT1 inhibitors is somewhat predictable because other methyltransferases mentioned above catalyse different substrates and share very low homology with DNMT1, even in their catalytic domain[30–32]. Subsequently, the screened compounds were evaluated in a dose-dependent assay against HCT116 (human colon cancer cell line) and A549 (human lung carcinoma cell line).
as §5, §6, §7, §8, §9
Cpd. […]

[6] = test system: LSD1; experiment: Methylation inhibition assay (AlphaLisa), LSD1; format: biochemical; settings: 1 - selected enzyme inhibition/DNMT1 inhibition; 50 µM
Experimental: as §1, §4, §5, §6, §7, §8, §9
Cpd. […]

[7] = test system: DNMT3A/3L; experiment: Methyltransferase enzymatic selectivity profiling, DNMT3A/3L; format: biochemical; settings: 1 - selected enzyme inhibition/DNMT1 inhibition; 50 µM
Experimental: as §4, §10, §5, §6, §7, §8, §9
Cpd. […]

[8] = test system: HCT116 (human colon cancer cells); experiment: MTT assay, HCT116; format: cell-based
Experimental: as §2, §3

[9] = test system: G9a (histone H3 lysine 9 methyltransferase); experiment: Methylation inhibition assay (AlphaLisa), G9a; format: biochemical; settings: 50 µM; for inhibitory activity against G9a: Figure 3; for Relative selectivity index of DNMT1 vs G9a: 1 - selected enzyme inhibition/DNMT1 inhibition
Experimental: as §1, §4, §5, §6, §7, §8, §9
Cpd. […]

[10] = 24 h, read-out: Inh % at 50 μM, A549, 24 h
[11] = 48 h, read-out: Inh % at 50 μM, A549, 48 h
[12] = 72 h, read-out: Inh % at 50 μM, A549, 72 h
[13] = HCT-116, 24 h, read-out: Inh % at 50 μM, HCT116, 24 h
[14] = HCT-116, 48 h, read-out: Inh % at 50 μM, HCT116, 48 h
[15] = HCT-116, 72 h, read-out: Inh % at 50 μM, HCT116, 72 h

| Inh% at 50 μM [1] [%] | Inh% at 100 μM [1] [%] | IC50 [2] [µM] | inhibitory activity against DNMT3B/3L [5] | Relative selectivity index of DNMT1 vs DNMT 3B/3L [5] | Relative selectivity index of DNMT1 vs DNMT 3A/3L [7] | inhibitory activity against G9a [9] | Relative selectivity index of DNMT1 vs G9a [9] | melting point [°C] | SMILES | inhibition at 50 µM [3, 10] [%] | inhibition at 50 µM [3, 11] [%] | inhibition at 50 µM [3, 12] [%] | inhibitory activity against EZH2 [4] | Relative selectivity index of DNMT1 vs EZH2 [4] | Relative selectivity index of DNMT1 vs LSD1 [6] | inhibition at 50 µM [8, 13] [%] | inhibition at 50 µM [8, 14] [%] | inhibition at 50 µM [8, 15] [%] |
| --- | --- | --- | --- | --- | --- | --- | --- | --- | --- | --- | --- | --- | --- | --- | --- | --- | --- | --- |
| 99 | 94 | 17 | hardly any inhibitory activities | 1.09 | 0.67 | hardly any inhibitory activities | 0.93 | 130 to 132 | OC(CNCCc1c[nH]c2ccccc12)Cn1c2ccc(F)cc2c2cc(F)ccc21 (stereo not shown) [WK-12, 1-((2-(1H-indol-3-yl)ethyl)amino)-3-(3,6-difluoro-9H-carbazol-9-yl)propan-2-ol] | 59.9 | 80.1 | 84.7 | hardly any inhibitory activities | 0.91 | 0.23 | 77.7 | 88.8 | 96.7 |
| 82 | 90 | 19 | hardly any inhibitory activities | 1.28 | 0.68 | hardly any inhibitory activities | 0.91 | 143 to 145 | Oc1ccc(CCNCC(O)Cn2c3ccc(F)cc3c3cc(F)ccc32)cc1 (stereo not shown) [WK-13, 4-(2-((3-(3,6-Difluoro-9H-carbazol-9-yl)-2-hydroxypropyl)amino)ethyl) phenol] | – | 69.2 | 84.1 | hardly any inhibitory activities | 1.01 | 0.33 | – | 86.3 | 93.2 |
| 78 | 93 | 9.2 | – | 1.29 | 0.67 | – | 0.91 | 136 to 138 | CC(CO)NCC(O)Cn1c2ccc(F)cc2c2cc(F)ccc21 (stereo not shown) [WK-19, 2-((3-(3,6-Difluoro-9H-carbazol-9-yl)-2-hydroxypropyl)amino)propan-1-ol] | 7.9 | 68.4 | 79.9 | – | 1.01 | 0.29 | 5.6 | 59.4 | 88.3 |
